Data: patent publication US20150168416A1, “KITS FOR DETECTING AND MONITORING ENDOCRINE DISRUPTING CHEMICALS (EDCs)” (THE UNITED STATES OF AMERICA, as represented by the …, priority 2012, published 2015)
“Also recorded” adds a separate entry of the source.

How the values were obtained:
Type in all cases: cell-based
GFP-AR = target: T1, GFP-AR (Homo sapiens, UniProt P10275); assay: GFP-AR cytoplasm-to-nucleus translocation assay (3108 cells); conditions: hormones 100 nM or known concentrations, water samples 100× unless specified, 30 min
T1 construct: expressed in transfected cells; host or cells: 3108 cells (derivative of the 3134 mouse mammary adenocarcinoma line), tetracycline-repressible promoter
Experimental: (§1) Prior to imaging, cells were grown overnight on 22-mm^2 coverslips in DMEM medium containing 10% charcoal stripped serum (Hyclone, Logan, Utah) without tetracycline (to allow the expression of the GFP-GR or GFP-AR, respectively) at a density of 2×10^5 per 6-well plate. For the automated experiments conducted in 96 or 384 well plates, cell density was 10, 000 or 2,500 cells per well, respectively. Cells were treated with vehicle control, hormones (100 nM) or water samples for 30 min at 37° C. at a final concentration of 100×for water samples (unless otherwise specified). Additional negative controls contained samples that tested the activity of the POCIS membranes themselves.
(§2) Upon treatment, cells were fixed with 4% paraformaldehyde in PBS for 15 minutes and washed three times with PBS. Cells on the 22-mm^2 coverslips were mounted in […]® mounting media with DAPI (Vector Laboratories, Inc.) and examined on a Leica DMRA microscope with Leica 100× 1.3-N.A. oil immersion objective. Images were acquired in green (GFP-GR and GFP-AR) and UV (DAPI) channel with SenSys (Photometrics) camera with KAF1400 chip configured to collect 0.067-μm-diameter pixels. For the automated experiments conducted in 96 or 384 well plates, cells were stained with DRAQ5 (BioStatus Limited) at a dilution of 1:5000 for 15 minutes and after three final washes with PBS were imaged either immediately on the Perkin Elmer Opera Image Screening System or kept in PBS at 4° C. for later imaging.
(§3) A Perkin Elmer Opera Image Screening System was used for fully automated collection of fluorescence images of cells. This system employed a 40×water immersion objective lens, laser illuminated Nipkow disk, and cooled CCD cameras to digitally capture high resolution confocal fluorescence micrographs (300 nm pixel size with 2×2 camera pixel binning). […] The algorithm also measured the mean GFP-GR or GFP-AR intensity in both compartments, and translocation was calculated as a ratio of these intensities. […]

GFP-GR = target: T2, GFP-GR (Rattus norvegicus, UniProt P06536, C656G/D98G); assay: GFP-GR cytoplasm-to-nucleus translocation assay (3617 cells); conditions: hormones 100 nM or known concentrations, water samples 100× unless specified, 30 min
T2 construct: expressed in transfected cells; host or cells: 3617 cells (derivative of the 3134 mouse mammary adenocarcinoma line), tetracycline-repressible promoter
Experimental: as §1, §2, §3

eGFP-ratMR = target: T3, eGFP-ratMR (Rattus norvegicus, UniProt P22199, A771G/D487G); assay: eGFP-ratMR translocation in mammalian cells
T3 construct: expressed in transfected cells
Text: (§4) Using molecular cloning methods essentially similar to those employed in Example 1, the following additional traceable fusion proteins have been constructed: an aryl hydrocarbon (e.g., dioxin) sensitive fusion protein, pRevTRE-GFP-mAhR (SEQ ID NOs: 9/10); a mineralocorticoid (e.g., aldosterone) sensitive fusion protein, eGFP-ratMR (SEQ ID NOs: 11/12); and a progestin-sensitive fusion protein, eGFP-hPRB (SEQ ID NOs: 13/14).

pRevTRE-GFP-mAhR = target: T4, pRevTRE-GFP-mAhR (Mus musculus, UniProt P30561); assay: pRevTRE-GFP-mAhR translocation in mammalian cells
T4 construct: expressed in transfected cells
Text: as §4

GFP-PR-B (eGFP-hPRB) = target: T5, GFP-PR-B (eGFP-hPRB) (Homo sapiens, UniProt P06401); assay: GFP-PR-B translocation in clonal cell lines; conditions: clones 8122, 8124, 8127, 8130 (four of five tested)
T5 construct: Five mammalian clonal lines expressing the same traceable fusion protein, GFP-PR-B (eGFP-hPRB); expressed in transfected cells
Text: Five mammalian clonal lines expressing the same traceable fusion protein, GFP-PR-B (eGFP-hPRB; SEQ ID NO: 14) were contacted with the indicated levels of progesterone, then assayed essentially as in Example 1 for translocation of the fusion protein into the nucleus from the cytoplasm.

With `C[C@@]12CCC[C@H]1[C@@H]1CC(=O)C3=CC(=O)CC[C@]3(C)[C@H]1CC2` [Androst-4-en-3,6-dione] the GFP-AR nuclear translocation (GFP-AR) was “induced GFP-tagged androgen receptor (GFP-AR) translocation”, the GFP-AR nuclear translocation (GFP-AR; listed as androst-4-en-3,6-dione) was “translocated to the nucleus in concentration-dependent manner; also recorded: induces concentration-dependent translocation” and the GFP-AR nuclear translocation (GFP-AR; listed as androst-4-ene-3,6-dione) was “GFP-AR nuclear translocation”. For the same compound, the GFP-GR nuclear translocation (GFP-GR) was “did not induce GFP-GR translocation”.

`C[C@]12CCC(=O)C=C1CC[C@@H]1[C@@H]2[C@@H](O)C[C@]2(C=O)[C@@H](C(=O)CO)CC[C@@H]12` [aldosterone] was tested, and the eGFP-ratMR translocation (eGFP-ratMR) was “exhibited the expected translocation”.

For `CCNc1nc(Cl)nc(NC(C)C)n1` [atrazine], the GFP-GR nuclear translocation (GFP-GR) was “did not induce GFP-GR translocation”.

With `C[C@]12C[C@H](O)[C@H]3[C@@H](CCC4=CC(=O)CC[C@@]43C)[C@@H]1CC[C@@H]2C(=O)CO` [corticosterone] the GFP-GR nuclear translocation (GFP-GR) was “translocates to the nucleus in a concentration-dependent manner; also recorded: GFP-GR translocation”.

For `C1=COC=CO1` [dioxin], the pRevTRE-GFP-mAhR translocation (pRevTRE-GFP-mAhR) was “exhibited the expected translocation”.

For `CC(=O)[C@H]1CC[C@H]2[C@@H]3CCC4=CC(=O)CC[C@]4(C)[C@H]3CC[C@]12C` [progesterone], the GFP-PR-B translocation (GFP-PR-B (eGFP-hPRB)) was “exhibited the expected translocation; also recorded: positive for translocation”.
